In patent US5744471A, “Pyridazion quinoline compounds” (Zeneca Limited, priority 1993, dated 1998):
Structures can show the parent of a compound that is named as a salt. Where two headings read alike, the source gives them in different places. One block for each compound: values may come before it.

What was measured:
[1] = target: T1, glycine receptor of the NMDA receptor complex (Rattus norvegicus, UniProt P35439); assay: [3H]-glycine binding assay (Test A; in-vitro glycine receptor assay); set-up: species or system rat (male Sprague-Dawley)
T1 construct: Freshly dissected cortices and hippocampi are homogenized in 0.32 M sucrose; from tissue; host or cells: rat cerebral cortex and hippocampus, synaptic membranes (male Sprague-Dawley)
Description: The actions of compounds according to the invention as antagonists at the giycine receptor of the NMDA receptor complex can be shown by one or more standard tests such as the [^3 H]-glycine binding assay (Test A) and by tests in vivo such as ischemia induced by carotid occlusion in the gerbil model (Test B). In addition to these tests, compounds of the invention are assayed in the red nucleus test (Test C) and in the Rat Middle Cerebral Artery test (Test D). These tests confirm that compounds of the invention are NMDA receptor antagonists in vitro and in vivo.
In the [^3 H]-glycine binding assay, neuronal synaptic membranes are prepared from adult (about 250 g) male Sprague-Dawley rats. Freshly dissected cortices and hippocampi are homogenized in 0.32 M sucrose (110 mg/mL). Synaptosomes are isolated by centrifugation (1000 xg, 10 min), the supernatant is pelleted (20,000 xg, 20 min) and resuspended in double-distilled water. The suspension was centrifuged for 20 minutes at 8,000 xg. The resulting supernatant and buffy coat are washed twice (48,000 xg, 10 mins, resuspension in double-deionized water). The final pellet is quickly frozen (dry ice/ethanol bath) under double-deionized water and stored at -70° C.
On the day of the experiment, thawed synaptic membranes are homogenized with a Brinkmann Polytron (tm, Brinkmann Instruments, Westbury, N.Y.) tissue homogenizer in 50 millimolar tris(hydroxymethyl)aminomethane citrate, pH 7.1. The membranes are incubated with 0.04% Sufact-AMPS X100 (tm, Pierce, Rockford, Ill.) in buffer for 20 minutes at 37° C. and washed six times by centrifugation (48,000 xg, 10 min) and resuspended in buffer. The final pellet is homogenized at 200 mg wet weight/mL of the buffer for the binding assay.
For [^3 H]-glycine binding at the N-methyl-D-aspartate receptor, 20 nanomolar [^3 H]-glycine (40-60 Ci/mmol, New England Nuclear, Boston, Mass.) is incubated with the membranes suspended in 50 millimolar tris (hydroxymethyl)aminomethane citrate, pH 7.1 for 30 minutes at 4° C. Glycine, 1 millimolar, is used to define the nonspecific binding. Bound [^3 H]-glycine is isolated from free using a Brandel (Biomedical Research and Development Laboratories, Gaithersburg, Md.) cell harvester for vacuum filtration over glass fiber filters (Whatman GF/B from Brandel, Gaithersburg, Md.) presoaked in 0.025% polyethylenimine. The samples retained on the glass fiber filters are rinsed 3 times with a total of 2.5 mL ice cold buffer. Radioactivity is estimated by liquid scintillation counting. IC50 values are obtained from a least-squares regression of a logit-log transformation of the data. […] The other examples disclosed herein are glycine antagonists.

[2] = test system: NMDA-induced excitatory response of red nucleus cells; assay: Red Nucleus Test (Test C); format: in vivo; conditions: Rattus norvegicus, iv, read-out: ID50 (NMDA-induced excitatory response of red nucleus cells)
Description: The purpose of this test is to determine the effects of intravenously administered glycine antagonists on the NMDA-induced excitatory response of red nucleus cells.
The procedure for the red nucleus test is as follows. Rats are anesthetized with chloral hydrate (400 mg/kg ip) and the femoral vein is catheterized for iv drug administration. Five-barrel micropipettes are stereotaxically positioned in the red nucleus. Typically, three to four of the five barrels are filled as follows: the recording barrel with 2M potassium citrate, the current balancing barrel with 4M NaCl, the drug barrel with 25 mM NMDA, and another drug barrel with 2.5 mM quisqualic acid (QA is only used in selectivity studies). NHDA is iontophoretically applied with an ejection current that is adjusted depending on the sensitivity of each individual red nucleus cell. The NMDA is cycled on and off (usually 30-60 sec. on and 60-120 sec. off) and the firing rate of the cell during each period is recorded. Once the baseline firing rate of the cell has been established, the test drug is administered iv. The effect of the drug on the NMDA-induced excitatory response of the red nucleus cell can be both qualitatively and quantitatively evaluated from the recordings and the raw data accumulated.

[3] = test system: neuronal damage in the hippocampus; assay: gerbil ischemic model, bilateral carotid occlusion (Test B); format: in vivo, Mongolian gerbils; conditions: 10 mg/Kg ip, 45 minutes before and 5 minutes after occlusion
Description: When testing in vivo using the gerbil ischemic model, adult female Mongolian gerbils (50-70 g) are anesthetized with 2 to 3% halothane. The bilateral common carotid arteries at the neck are exposed and occluded with microaneurysm clips. After 10 min (unless specified), the clips are removed and the blood flow through the carotid arteries is restored and the skin is sutured. Test compounds are administered intraperitoneally both pre- and post-occlusion, for example 45 minutes before and 5 minutes after occlusion of the carotid arteries. Sham-operated animals are treated in the same manner except that the arteries are not clamped. Gross behavioral observations along with motor activity are recorded for 2 hr on the first (24 hr) day following the occlusion. After 4 days, subjects are sacrificed (decapitation), brains are removed, fixed, sectioned and stained with hematoxylin/eosin and cresyl violet.
The brain sections are rated for neuronal damage in the hippocampus using the following rating scale:
1=slight damage (up to 25%)--restricted to CAI/subiculum border
2=moderate damage (up to 50%)--obvious damage, restricted to less than half of CA1 field […]
Sections (7 micron) are evaluated from each brain. […] The average brain damage rating score for each group is recorded, and the damage scores of the drug treated group are compared to the vehicle-treated group using Wilcoxon-Rank Sum test.

[4] = read-out: IC50 in the [3H]Gly test
[5] = 20 nanomolar [3H]-glycine, rat synaptic membranes, pH 7.1, 4° C., read-out: IC50 in the [3H]-glycine binding assay

IC50 [1, 4]: > 100 µM | activity in the in-vitro glycine receptor assay ([1]; result in words): inactive
Structure (SMILES): COc1ccc(-n2nc(O)c3c(=O)c4ccc(Cl)cc4[nH]c3c2=O)cc1 [Example 7, 7-Chloro-1-hydroxy-3-(4-methoxyphenyl)-3,4,5,10-tetrahydropyridazino[4,5-b]quinoline-4,10-dione]

IC50 [1, 4]: > 100 µM | activity in the in-vitro glycine receptor assay ([1]; result in words): inactive
Structure (SMILES): O=c1c2ccc(Cl)cc2[nH]c2c(=O)n(-c3ccc(O)cc3)nc(O)c12 [Example 9, 7-Chloro-1-hy droxy-3-(4-hydroxyphenyl)-3,4,5,10-tetrahydropyridazino[4,5-b]quinoline-4,10-dione]

activity in the in-vitro glycine receptor assay ([1]; result in words): inactive
Structure (SMILES): O=c1c2ccc(Cl)cc2[nH]c2c(=O)n(-c3ccc(Cl)cc3)nc(O)c12 [Example 16, 7-Chloro-1-hydroxy-3-(4-chlorophenyl)-3,4,5,10-tetrahydropyridazino[4,5-b]quinoline-4,10-dione]

activity in the in-vitro glycine receptor assay ([1]; result in words): inactive
Structure (SMILES): Cc1ccc(-n2nc(O)c3c(=O)c4ccc(Cl)cc4[nH]c3c2=O)cc1 [Example 18, 7-Chloro-1-hydroxy-3-(4-methylphenyl)-3,4,5,10-tetrahydropyridazino[4,5-b]quinoline-4,10-dione]

The remaining lines, values behind:

Structure (SMILES): O=C(NCCn1nc(O)c2[nH]c3cc(Cl)ccc3c(=O)c2c1=O)c1ccccc1 [2-ethylbenzamidederivative]
glycine receptor antagonist activity ([1]; result in words): active as a glycine receptor antagonist

Structure (SMILES): CC(=O)OCCn1nc(O)c2c(=O)c3ccc(Cl)cc3[nH]c2c1=O [3-(2-Acetoxyethyl), 3-(2-Acetoxyethyl)7-chloro-4-hydroxy-1,2,5,10-tetrahydropyridazino[4,5-]quinoline-1,10-dione]
IC50 [1, 4]: > 100 µM

Structure (SMILES): C/C(=C\C(N)C(=O)O)CP(=O)(O)O (stereo not shown) [CGP 37849]
ED50 [2]: 1.7 mg/kg

Structure (SMILES): O=c1c2ccc(Cl)cc2[nH]c2c(=O)n(CCO)nc(O)c12 [Example 1, 7-Chloro-1-hydroxy-3-(2-hydroxyethyl)-3,4,5,10-tetrahydropyridazino[4,5-b]quinoline-4,10-dione]
IC50 [1, 5]: 40 µM

Structure (SMILES): O=C1c2ccccc2C(=O)N1CCn1nc(O)c2[nH]c3cc(Cl)ccc3c(=O)c2c1=O [Example 4, 7-Chloro-4-hydroxy-2-(2-phthalimidoethyl)-1,2,5,10-tetrahydropyridazino[4,5-b]quinoline-1,10-dione]
neuroprotection (relative to sham-operated control) [3]: 35%

Structure (SMILES): O=c1c2ccc(Cl)cc2[nH]c2c(=O)n(-c3ccccc3)nc(O)c12 [Example 5, 7-Chloro-1-hydroxy-3-phenyl-3,4,5,10-tetrahydropyridazino[4,5-b]-quinoline-4,10-dione, choline salt]
activity in the in-vitro glycine receptor assay ([1]; result in words): inactive

Structure (SMILES): O=c1c2ccc(Cl)cc2[nH]c2c(O)nn(-c3ccc(O)cc3)c(=O)c12 [Example 10, 7-Chloro-4-hydroxy-2-(4-hydroxyphenyl)-1,2,5,10-tetrahydropyridazino[4,5-b]quinoline-1,10-dione]
IC50 [1, 5]: 0.12 µM | neuroprotection (relative to sham-operated control) [3]: over 80%

Structure (SMILES): CC(C)c1ccc(-n2nc(O)c3c(=O)c4ccc(Cl)cc4[nH]c3c2=O)cc1 [Example 20, 7-Chloro-1-hydroxy-3-(4-isopropylphenyl)-3,4,5,10-tetrahydropyridazino[4,5- ]-quinoline-4,10-dione]
activity in the in-vitro glycine receptor assay ([1]; result in words): inactive

Structure (SMILES): NC1CCN(O)C1=O (stereo not shown) [HA-966]
ED50 ([2]; reference agents): 7.9 mg/kg
